# Reference: the supplement of paper PMC6045584
# ± gives the standard deviation of the averaged measurements.
# Legend:
# XAV-939 = compound: Oc1nc(-c2ccc(C(F)(F)F)cc2)nc2c1CSCC2 [XAV-939]; test: surviving fraction relative to DMSO-only wells; higher = less growth inhibition; details: exposure time: 5 days
# Summary of the method: (§1)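 Lines were retained only if, across three screens, replicate Pearson r was >0.7 and median Z' was >0.3. Viability was measured as CellTiter-Glo luminescence and reported as surviving fraction relative to the median of DMSO-only wells. Readings followed 10 minutes at room temperature, after log-phase tumour cells seeded at 250–500 per well in 384-well plates had been exposed, from 24 hours after seeding, continuously for five days to inhibitors at 0.5, 1, 5, 10, 50, 100, 500 and 1000 nM.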
# FORETINIB = compound: COc1cc2c(Oc3ccc(NC(=O)C4(C(=O)Nc5ccc(F)cc5)CC4)cc3F)ccnc2cc1OCCCN1CCOCC1 [FORETINIB]; test: as above; details: exposure time: 5 days
# Summary of the method: as §1
Test System,surviving fraction (XAV-939; 0.5 nM),surviving fraction (XAV-939; 1 nM),surviving fraction (XAV-939; 5 nM),surviving fraction (XAV-939; 10 nM),surviving fraction (XAV-939; 50 nM),surviving fraction (XAV-939; 100 nM),surviving fraction (XAV-939; 500 nM),surviving fraction (XAV-939; 1000 nM),surviving fraction (FORETINIB; 0.5 nM),surviving fraction (FORETINIB; 1 nM),surviving fraction (FORETINIB; 5 nM),surviving fraction (FORETINIB; 10 nM),surviving fraction (FORETINIB; 50 nM),surviving fraction (FORETINIB; 100 nM),surviving fraction (FORETINIB; 500 nM),surviving fraction (FORETINIB; 1000 nM)
HCC1395 BREAST,0.889 ± 0.052,0.822 ± 0.34,0.987 ± 0.096,0.937 ± 0.25,0.973 ± 0.12,0.847 ± 0.23,1.04 ± 0.027,0.855 ± 0.14,1.07 ± 0.09,1.08 ± 0.11,1.26 ± 0.076,1.17 ± 0.048,1.09 ± 0.083,1.02 ± 0.034,0.939 ± 0.063,0.796 ± 0.085
NOS1 BONE,1.11 ± 0.086,1.06 ± 0.045,1.29 ± 0.26,1.14 ± 0.074,1.17 ± 0.083,1.06 ± 0.096,0.783 ± 0.1,0.778 ± 0.065,1.12 ± 0.43,1.04 ± 0.052,1 ± 0.063,0.98 ± 0.099,0.79 ± 0.058,0.749 ± 0.028,0.28 ± 0.039,0.114 ± 0.0078
RDES SOFT TISSUE,1.24 ± 0.15,1.3 ± 0.16,1.29 ± 0.21,1.22 ± 0.2,1.21 ± 0.14,1.18 ± 0.27,1.11 ± 0.11,1.08 ± 0.16,1.31 ± 0.058,1.25 ± 0.13,1.17 ± 0.088,1.07 ± 0.065,0.989 ± 0.12,0.892 ± 0.092,0.226 ± 0.013,0.106 ± 0.0059
MDAMB453 BREAST,0.991 ± 0.053,1.02 ± 0.034,1.1 ± 0.088,1.08 ± 0.043,1.06 ± 0.04,1.12 ± 0.074,1.02 ± 0.069,0.961 ± 0.049,1.1 ± 0.067,1.09 ± 0.062,1.12 ± 0.058,1.13 ± 0.087,1.12 ± 0.025,1.08 ± 0.04,0.952 ± 0.041,0.763 ± 0.035
NY BONE,0.927 ± 0.024,0.98 ± 0.037,0.997 ± 0.018,1.06 ± 0.036,1.03 ± 0.053,1.02 ± 0.041,0.936 ± 0.032,0.924 ± 0.029,1.05 ± 0.035,1.03 ± 0.034,1.07 ± 0.033,1.016 ± 0.0061,0.91 ± 0.019,0.93 ± 0.045,0.558 ± 0.047,0.587 ± 0.031
HOS BONE,1.01 ± 0.028,1.05 ± 0.016,1.02 ± 0.013,1.04 ± 0.0066,1.04 ± 0.029,1.04 ± 0.011,0.996 ± 0.02,1.05 ± 0.065,1.014 ± 0.0075,1.01 ± 0.012,1.057 ± 0.0045,1.01 ± 0.022,1.02 ± 0.075,1.02 ± 0.036,0.55 ± 0.024,0.451 ± 0.013
CAL51 BREAST,0.967 ± 0.032,1.03 ± 0.046,1.02 ± 0.025,0.992 ± 0.017,1.01 ± 0.049,1.01 ± 0.023,0.846 ± 0.033,0.799 ± 0.089,0.991 ± 0.039,0.964 ± 0.053,1.04 ± 0.011,0.9858 ± 0.0063,0.993 ± 0.064,0.979 ± 0.052,0.162 ± 0.0044,0.136 ± 0.01
MDAMB134 BREAST,1.05 ± 0.052,0.999 ± 0.041,1.06 ± 0.17,0.93 ± 0.03,1.13 ± 0.1,1.06 ± 0.22,1.15 ± 0.052,1.03 ± 0.051,0.888 ± 0.12,1.41 ± 0.042,0.916 ± 0.06,1.37 ± 0.026,0.86 ± 0.16,1.17 ± 0.32,0.939 ± 0.14,0.886 ± 0.033
KPD BONE,0.937 ± 0.07,0.981 ± 0.061,0.999 ± 0.048,0.995 ± 0.043,0.992 ± 0.058,0.926 ± 0.035,0.883 ± 0.035,0.828 ± 0.061,1.05 ± 0.059,1.03 ± 0.029,1.09 ± 0.03,1.11 ± 0.026,1.07 ± 0.04,1.04 ± 0.018,0.63 ± 0.037,0.303 ± 0.028
MG63 BONE,0.98 ± 0.028,1.03 ± 0.034,1.025 ± 0.0083,1.09 ± 0.018,0.947 ± 0.034,0.923 ± 0.03,0.7 ± 0.0078,0.723 ± 0.021,1.05 ± 0.012,1.07 ± 0.048,1.09 ± 0.043,1.11 ± 0.05,0.901 ± 0.037,0.817 ± 0.026,0.567 ± 0.015,0.322 ± 0.02
SG28 HEADNECK,1.01 ± 0.11,1.11 ± 0.095,0.981 ± 0.083,0.967 ± 0.11,1.02 ± 0.14,0.958 ± 0.07,0.912 ± 0.075,0.91 ± 0.058,1.04 ± 0.07,1.15 ± 0.12,1.12 ± 0.077,0.972 ± 0.011,1.02 ± 0.054,0.941 ± 0.054,0.826 ± 0.023,0.512 ± 0.046
CME SYNOVIAL,1.27 ± 0.24,1.2 ± 0.093,1.25 ± 0.16,1.3 ± 0.093,1.29 ± 0.14,1.3 ± 0.071,1.1 ± 0.03,0.952 ± 0.094,1.39 ± 0.037,1.39 ± 0.12,1.41 ± 0.074,1.28 ± 0.14,1.27 ± 0.08,1.18 ± 0.12,0.887 ± 0.1,0.285 ± 0.048
MDAMB361 BREAST,0.879 ± 0.03,0.906 ± 0.036,0.955 ± 0.045,0.901 ± 0.034,1 ± 0.02,0.917 ± 0.099,0.923 ± 0.024,0.874 ± 0.054,0.794 ± 0.035,0.877 ± 0.15,0.803 ± 0.05,1.18 ± 0.11,0.9 ± 0.15,0.798 ± 0.021,0.918 ± 0.1,0.918 ± 0.073
MCF7 BREAST,0.941 ± 0.062,0.953 ± 0.07,0.954 ± 0.033,0.937 ± 0.023,1.01 ± 0.069,1.05 ± 0.041,1.03 ± 0.054,1.01 ± 0.061,0.938 ± 0.026,0.958 ± 0.056,0.972 ± 0.031,0.993 ± 0.057,0.908 ± 0.052,0.959 ± 0.0097,0.669 ± 0.055,0.701 ± 0.066
CAL120 BREAST,0.984 ± 0.027,1.02 ± 0.013,1.01 ± 0.019,0.969 ± 0.018,1.01 ± 0.021,1.011 ± 0.0096,0.951 ± 0.012,0.9582 ± 0.0029,0.95 ± 0.035,1.01 ± 0.033,0.997 ± 0.026,0.993 ± 0.042,0.997 ± 0.069,0.97 ± 0.014,0.683 ± 0.03,0.562 ± 0.016
HU09 BONE,1.11 ± 0.087,1.13 ± 0.061,1.06 ± 0.17,1.09 ± 0.051,1.01 ± 0.11,1.21 ± 0.031,0.817 ± 0.049,0.788 ± 0.043,0.923 ± 0.11,1.01 ± 0.063,1 ± 0.08,0.958 ± 0.082,0.625 ± 0.1,0.496 ± 0.087,0.201 ± 0.016,0.0877 ± 0.0029
JIMT1 BREAST,1 ± 0.013,1.03 ± 0.027,0.9983 ± 0.008,0.995 ± 0.031,1 ± 0.05,1.04 ± 0.025,0.934 ± 0.032,0.943 ± 0.0033,0.991 ± 0.015,0.978 ± 0.032,1.03 ± 0.058,1.03 ± 0.031,1 ± 0.041,1.01 ± 0.11,0.62 ± 0.033,0.484 ± 0.087
SG31 HEADNECK,1.02 ± 0.12,1.13 ± 0.1,1.12 ± 0.28,1.02 ± 0.046,0.985 ± 0.021,0.853 ± 0.19,0.745 ± 0.055,0.747 ± 0.037,1.38 ± 0.16,1.41 ± 0.11,1.1 ± 0.18,1.09 ± 0.21,0.969 ± 0.14,1.12 ± 0.11,1.02 ± 0.17,0.898 ± 0.087
SNU475 LIVER,0.936 ± 0.035,0.976 ± 0.033,0.891 ± 0.18,1.02 ± 0.018,0.952 ± 0.011,0.965 ± 0.033,0.713 ± 0.068,0.59 ± 0.027,1.05 ± 0.052,1.03 ± 0.025,0.957 ± 0.087,1 ± 0.036,0.967 ± 0.016,0.979 ± 0.035,0.853 ± 0.055,0.502 ± 0.03
CASKI CERVIX,0.918 ± 0.017,0.944 ± 0.037,0.975 ± 0.011,0.997 ± 0.013,1.03 ± 0.028,1.06 ± 0.03,0.935 ± 0.037,0.965 ± 0.051,0.902 ± 0.072,0.929 ± 0.013,0.962 ± 0.019,0.943 ± 0.018,0.988 ± 0.062,0.976 ± 0.06,0.322 ± 0.026,0.188 ± 0.0057
